From patent US20240269139A1, “COMPOUNDS FOR TARGETED PROTEIN DEGRADATION OF KINASES” (DANA-FARBER CANCER INSTITUTE, INC., priority 2020, published 2024)
Like-named read-outs stand apart in the source and are kept apart here.

Assays:
Format in all cases: cell-based
[1] = target: T1, protein kinases (human kinome) (Homo sapiens, UniProt O14965)
T1 sequence (O14965 1-403): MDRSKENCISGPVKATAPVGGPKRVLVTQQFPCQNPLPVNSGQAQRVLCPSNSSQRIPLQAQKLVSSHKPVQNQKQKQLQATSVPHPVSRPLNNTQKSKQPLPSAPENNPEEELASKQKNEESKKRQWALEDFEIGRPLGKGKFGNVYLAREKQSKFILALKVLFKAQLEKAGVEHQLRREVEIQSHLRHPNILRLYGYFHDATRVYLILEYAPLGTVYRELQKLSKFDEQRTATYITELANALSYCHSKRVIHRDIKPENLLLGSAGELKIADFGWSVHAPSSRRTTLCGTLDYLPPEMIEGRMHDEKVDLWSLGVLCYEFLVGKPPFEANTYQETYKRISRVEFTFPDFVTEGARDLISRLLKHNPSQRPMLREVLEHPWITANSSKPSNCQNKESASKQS
Source text: (§1) Although development of targeted protein degraders requires a POI binder, among already-liganded proteins such as kinases, it was hypothesized that different targets would have a different propensity for current approaches to degrader-mediated destruction, which was termed ‘degradability’. […] It was rationalized that the probability of identifying the same kinase as a false positive in multiple treatments is low, therefore this analysis served to also assess the robustness of our data and subsequent interpretations. […] Overall, 62 protein kinases were degraded in more than 10 independent treatments, and remarkably, 9 of these (CDK4, AURKA, FER, WEE1, BLK. LIMK2, CDK6, GAK, LIMK1) were each degraded in at least 40 of the 154 independent treatments, emphasizing their predisposition to induced degradation (FIG. 1G; Appendix I).
(§2) Next, the frequency of degradation assessment was corrected for over-representation of molecules in the full dataset by omitting replicate profiling of compounds under different experimental conditions, to remove any bias. […] Unsurprisingly, the top degradable kinases mirror those from the previous analysis (CDK4, AURKA, FER, WEE1, BLK), confirming that in sufficiently large datasets, even with over-representation of certain molecules, frequency of degradation is a good measure of general tractability.

[2] = target: protein kinases (human kinome) (Homo sapiens, UniProt P16591); settings: for logFC of FER (P16591-1): down; for logFC of FER: FER P16591-1
Sequence of protein kinases (human kinome) (Homo sapiens, UniProt P16591) (P16591 whole entry): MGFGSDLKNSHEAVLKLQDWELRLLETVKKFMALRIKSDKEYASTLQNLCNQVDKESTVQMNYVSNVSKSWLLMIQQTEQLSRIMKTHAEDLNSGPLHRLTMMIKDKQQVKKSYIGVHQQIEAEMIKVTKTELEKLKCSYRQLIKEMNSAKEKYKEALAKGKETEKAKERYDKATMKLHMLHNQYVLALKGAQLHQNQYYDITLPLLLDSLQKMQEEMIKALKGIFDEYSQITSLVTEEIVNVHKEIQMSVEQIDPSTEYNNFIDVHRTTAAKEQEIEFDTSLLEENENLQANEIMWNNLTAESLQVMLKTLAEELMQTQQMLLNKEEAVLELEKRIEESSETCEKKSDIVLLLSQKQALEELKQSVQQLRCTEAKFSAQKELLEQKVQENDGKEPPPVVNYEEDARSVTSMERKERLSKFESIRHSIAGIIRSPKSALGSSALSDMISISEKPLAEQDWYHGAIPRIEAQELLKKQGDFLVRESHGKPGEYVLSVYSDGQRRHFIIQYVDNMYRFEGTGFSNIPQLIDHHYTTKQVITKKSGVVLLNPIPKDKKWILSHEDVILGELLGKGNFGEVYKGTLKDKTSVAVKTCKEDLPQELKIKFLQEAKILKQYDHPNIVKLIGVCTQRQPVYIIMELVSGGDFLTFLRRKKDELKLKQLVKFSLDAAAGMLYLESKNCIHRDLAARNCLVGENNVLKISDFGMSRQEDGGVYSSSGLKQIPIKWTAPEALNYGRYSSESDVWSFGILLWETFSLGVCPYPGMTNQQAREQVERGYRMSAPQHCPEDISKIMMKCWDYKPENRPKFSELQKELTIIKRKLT
Source text: as §1, §2

[3] = target: protein kinases (human kinome) (Homo sapiens, UniProt Q05397); settings: experiment wp011
Source text: as §1, §2

[4] = target: protein kinases (human kinome) (Homo sapiens, UniProt Q8TDR2); settings: experiment wp114
Source text: as §1, §2

[5] = tested on: protein kinases (human kinome); settings: for logFC CSNK1D: experiment wp114; for logFC: CDK9 (P50750-2) protein abundance, degrader vs DMSO, down
Source text: as §1, §2

[6] = target: protein kinases (human kinome) (Homo sapiens, UniProt P24941)
Source text: as §1, §2

[7] = target: protein kinases (human kinome) (Homo sapiens, UniProt P30291); settings: for logFC of WEE1: WEE1 P30291-1
Sequence of protein kinases (human kinome) (Homo sapiens, UniProt P30291) (P30291 whole entry): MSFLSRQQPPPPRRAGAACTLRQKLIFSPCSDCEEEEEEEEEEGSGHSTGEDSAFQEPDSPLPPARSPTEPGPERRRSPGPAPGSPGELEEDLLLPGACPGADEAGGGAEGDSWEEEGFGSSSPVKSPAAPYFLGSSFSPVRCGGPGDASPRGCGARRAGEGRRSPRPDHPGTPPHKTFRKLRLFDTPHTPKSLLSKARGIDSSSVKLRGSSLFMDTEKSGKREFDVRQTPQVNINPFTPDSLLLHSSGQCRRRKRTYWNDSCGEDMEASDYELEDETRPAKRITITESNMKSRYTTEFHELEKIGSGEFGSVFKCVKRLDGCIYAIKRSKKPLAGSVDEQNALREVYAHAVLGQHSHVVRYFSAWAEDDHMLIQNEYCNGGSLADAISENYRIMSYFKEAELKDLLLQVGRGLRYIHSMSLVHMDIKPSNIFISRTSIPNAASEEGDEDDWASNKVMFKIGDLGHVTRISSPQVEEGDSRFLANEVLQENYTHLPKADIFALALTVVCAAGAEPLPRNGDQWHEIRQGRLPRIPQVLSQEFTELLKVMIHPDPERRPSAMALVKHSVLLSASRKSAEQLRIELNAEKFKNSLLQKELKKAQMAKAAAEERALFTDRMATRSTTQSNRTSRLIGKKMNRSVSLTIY
Source text: as §1, §2

[8] = target: protein kinases (human kinome) (Homo sapiens, UniProt P50613); settings: for logFC: CDK7 (P50613) protein abundance, degrader vs DMSO, down; for logFC CDK7: CDK7 P50613
Sequence of protein kinases (human kinome) (Homo sapiens, UniProt P50613) (P50613 whole entry): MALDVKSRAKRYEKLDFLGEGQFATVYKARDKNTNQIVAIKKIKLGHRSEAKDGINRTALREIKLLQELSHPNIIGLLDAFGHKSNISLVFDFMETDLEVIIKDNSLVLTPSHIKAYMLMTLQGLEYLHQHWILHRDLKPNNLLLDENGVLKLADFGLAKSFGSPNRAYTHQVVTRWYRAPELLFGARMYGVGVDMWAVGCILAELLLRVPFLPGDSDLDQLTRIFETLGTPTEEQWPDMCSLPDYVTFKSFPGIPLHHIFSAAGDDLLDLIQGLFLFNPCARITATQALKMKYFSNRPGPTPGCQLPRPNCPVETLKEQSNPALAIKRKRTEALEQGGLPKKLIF
Source text: as §1, §2

[9] = target: protein kinases (human kinome) (Homo sapiens, UniProt P51451)
Source text: as §1, §2

[10] = target: protein kinases (human kinome) (Homo sapiens, UniProt P53671); settings: experiment wp016
Source text: as §1, §2

[11] = target: protein kinases (human kinome) (Homo sapiens, UniProt Q00535)
Sequence of protein kinases (human kinome) (Homo sapiens, UniProt Q00535) (Q00535 whole entry): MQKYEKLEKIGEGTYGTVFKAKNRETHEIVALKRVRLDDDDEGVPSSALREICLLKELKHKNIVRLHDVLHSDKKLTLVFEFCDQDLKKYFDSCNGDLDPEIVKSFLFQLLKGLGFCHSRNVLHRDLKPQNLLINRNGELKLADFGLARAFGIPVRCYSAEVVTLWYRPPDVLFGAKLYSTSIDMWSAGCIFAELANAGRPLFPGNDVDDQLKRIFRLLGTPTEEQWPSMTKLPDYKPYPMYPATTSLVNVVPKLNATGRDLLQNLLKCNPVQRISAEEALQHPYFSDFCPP
Source text: as §1, §2

[12] = target: protein kinases (human kinome) (Homo sapiens, UniProt Q00537); settings: for logFC of CDK17: Accession Q00537; for logFC CDK17 (Q00537): direction of change down
Sequence of protein kinases (human kinome) (Homo sapiens, UniProt Q00537) (Q00537 whole entry): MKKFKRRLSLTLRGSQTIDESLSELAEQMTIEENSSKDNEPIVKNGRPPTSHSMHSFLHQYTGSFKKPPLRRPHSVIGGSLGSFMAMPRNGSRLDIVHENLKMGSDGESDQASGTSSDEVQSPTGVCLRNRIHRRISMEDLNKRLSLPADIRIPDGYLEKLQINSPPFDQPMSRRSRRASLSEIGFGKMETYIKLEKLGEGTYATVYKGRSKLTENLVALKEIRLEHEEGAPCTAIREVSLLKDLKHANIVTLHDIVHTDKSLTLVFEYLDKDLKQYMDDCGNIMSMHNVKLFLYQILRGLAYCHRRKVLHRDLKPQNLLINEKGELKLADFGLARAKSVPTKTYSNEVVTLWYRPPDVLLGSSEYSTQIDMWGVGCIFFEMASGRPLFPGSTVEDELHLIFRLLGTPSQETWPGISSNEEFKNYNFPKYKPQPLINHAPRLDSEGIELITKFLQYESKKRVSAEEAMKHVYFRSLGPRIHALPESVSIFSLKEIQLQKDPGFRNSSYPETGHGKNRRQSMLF
Source text: as §1, §2

[13] = target: T2, protein kinases (human kinome) (Homo sapiens, UniProt Q08881); settings: experiment wp016
T2 sequence (Q08881 1-620): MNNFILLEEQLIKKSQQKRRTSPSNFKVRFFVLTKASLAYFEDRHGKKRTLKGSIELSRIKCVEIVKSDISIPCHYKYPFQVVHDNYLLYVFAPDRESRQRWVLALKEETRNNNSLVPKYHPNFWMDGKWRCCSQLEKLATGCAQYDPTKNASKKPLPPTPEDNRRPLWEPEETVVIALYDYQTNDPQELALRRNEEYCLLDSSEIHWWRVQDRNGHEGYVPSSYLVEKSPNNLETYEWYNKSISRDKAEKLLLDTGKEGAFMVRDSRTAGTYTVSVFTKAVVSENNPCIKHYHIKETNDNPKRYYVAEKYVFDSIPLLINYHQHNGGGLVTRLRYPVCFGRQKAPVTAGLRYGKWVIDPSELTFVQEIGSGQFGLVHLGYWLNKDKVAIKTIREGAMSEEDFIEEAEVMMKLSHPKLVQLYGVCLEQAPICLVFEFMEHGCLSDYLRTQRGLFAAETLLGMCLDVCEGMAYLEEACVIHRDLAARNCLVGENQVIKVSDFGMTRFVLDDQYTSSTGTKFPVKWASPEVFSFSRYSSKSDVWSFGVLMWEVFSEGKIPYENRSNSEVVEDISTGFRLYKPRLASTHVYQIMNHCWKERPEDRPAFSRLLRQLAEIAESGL
Source text: as §1, §2

[14] = target: protein kinases (human kinome) (Homo sapiens, UniProt Q14289)
Source text: as §1, §2

[15] = target: protein kinases (human kinome) (Homo sapiens, UniProt Q2M2I8); settings: experiment wp016
Source text: as §1, §2

[16] = target: protein kinases (human kinome) (Homo sapiens, UniProt Q9NYV4)
Sequence of protein kinases (human kinome) (Homo sapiens, UniProt Q9NYV4) (Q9NYV4 whole entry): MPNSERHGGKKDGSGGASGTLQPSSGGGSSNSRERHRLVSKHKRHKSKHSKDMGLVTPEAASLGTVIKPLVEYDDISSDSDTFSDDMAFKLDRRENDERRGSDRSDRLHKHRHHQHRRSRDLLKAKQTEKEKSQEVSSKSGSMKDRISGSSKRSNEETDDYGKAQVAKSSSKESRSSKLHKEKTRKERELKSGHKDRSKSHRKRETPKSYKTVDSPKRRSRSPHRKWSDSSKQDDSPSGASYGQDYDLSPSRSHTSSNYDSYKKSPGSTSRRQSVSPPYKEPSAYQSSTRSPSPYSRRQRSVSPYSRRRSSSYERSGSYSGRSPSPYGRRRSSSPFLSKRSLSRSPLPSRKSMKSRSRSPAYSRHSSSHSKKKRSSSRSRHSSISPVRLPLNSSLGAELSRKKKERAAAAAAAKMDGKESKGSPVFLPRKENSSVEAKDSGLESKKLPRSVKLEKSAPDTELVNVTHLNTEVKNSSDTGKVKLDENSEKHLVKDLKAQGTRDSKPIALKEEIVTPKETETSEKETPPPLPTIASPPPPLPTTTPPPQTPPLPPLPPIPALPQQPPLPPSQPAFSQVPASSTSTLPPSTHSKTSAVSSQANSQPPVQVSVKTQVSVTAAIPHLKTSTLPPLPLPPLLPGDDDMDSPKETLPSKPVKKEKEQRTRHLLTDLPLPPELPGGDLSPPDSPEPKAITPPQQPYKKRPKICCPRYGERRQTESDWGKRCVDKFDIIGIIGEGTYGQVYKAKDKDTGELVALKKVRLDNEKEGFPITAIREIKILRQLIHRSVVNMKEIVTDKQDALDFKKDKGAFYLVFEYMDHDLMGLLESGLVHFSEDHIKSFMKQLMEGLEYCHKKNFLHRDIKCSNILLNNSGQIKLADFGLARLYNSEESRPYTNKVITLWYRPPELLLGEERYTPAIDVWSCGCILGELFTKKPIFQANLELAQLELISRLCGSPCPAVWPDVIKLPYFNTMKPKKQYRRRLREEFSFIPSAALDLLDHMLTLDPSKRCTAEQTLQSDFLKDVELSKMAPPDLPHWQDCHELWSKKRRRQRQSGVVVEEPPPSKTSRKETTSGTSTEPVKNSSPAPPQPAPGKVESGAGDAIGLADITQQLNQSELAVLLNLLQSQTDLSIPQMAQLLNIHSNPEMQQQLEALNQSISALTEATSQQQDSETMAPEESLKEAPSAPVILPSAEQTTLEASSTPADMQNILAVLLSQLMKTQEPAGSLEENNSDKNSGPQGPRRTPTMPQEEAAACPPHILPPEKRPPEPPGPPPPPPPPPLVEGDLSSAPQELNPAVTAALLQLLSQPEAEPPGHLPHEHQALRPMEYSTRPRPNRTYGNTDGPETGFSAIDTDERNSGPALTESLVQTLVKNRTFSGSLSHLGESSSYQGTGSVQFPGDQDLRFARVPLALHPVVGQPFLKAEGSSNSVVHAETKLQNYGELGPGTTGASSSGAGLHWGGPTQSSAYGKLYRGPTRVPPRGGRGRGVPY
Source text: as §1, §2

[17] = target: protein kinases (human kinome) (Homo sapiens, UniProt P06493); settings: CDK1 P06493; experiment wp146
Source text: as §1, §2

[18] = target: protein kinases (human kinome) (Homo sapiens, UniProt P45984); settings: MAPK9 P45984-1; experiment wp146
Source text: as §1, §2

[19] = target: protein kinases (human kinome) (Homo sapiens, UniProt P11802)
Sequence of protein kinases (human kinome) (Homo sapiens, UniProt P11802) (P11802 whole entry): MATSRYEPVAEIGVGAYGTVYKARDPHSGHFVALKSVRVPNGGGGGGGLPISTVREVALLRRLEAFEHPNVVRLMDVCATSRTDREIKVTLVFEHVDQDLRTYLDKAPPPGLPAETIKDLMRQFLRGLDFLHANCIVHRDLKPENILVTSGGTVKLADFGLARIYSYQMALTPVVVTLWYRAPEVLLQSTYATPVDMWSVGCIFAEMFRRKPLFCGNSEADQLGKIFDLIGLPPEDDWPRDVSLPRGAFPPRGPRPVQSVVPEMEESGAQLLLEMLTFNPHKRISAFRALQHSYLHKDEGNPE
Source text: as §1, §2

[20] = target: protein kinases (human kinome) (Homo sapiens, UniProt Q00534); settings: for logFC CDK6: CDK6 (Q00534), direction down; for logFC of CDK6 (Q00534): down
Sequence of protein kinases (human kinome) (Homo sapiens, UniProt Q00534) (Q00534 whole entry): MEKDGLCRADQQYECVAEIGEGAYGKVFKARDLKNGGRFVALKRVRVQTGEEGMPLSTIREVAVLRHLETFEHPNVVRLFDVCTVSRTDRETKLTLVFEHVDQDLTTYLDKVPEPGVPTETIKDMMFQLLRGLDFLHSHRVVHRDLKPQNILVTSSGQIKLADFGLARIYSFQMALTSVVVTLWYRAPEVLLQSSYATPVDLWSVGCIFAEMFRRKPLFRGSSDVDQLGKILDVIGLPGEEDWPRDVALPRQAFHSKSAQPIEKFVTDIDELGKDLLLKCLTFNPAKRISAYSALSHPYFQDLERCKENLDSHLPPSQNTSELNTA
Source text: as §1, §2

[21] = target: protein kinases (human kinome) (Homo sapiens, UniProt Q15118); settings: PDK1 Q15118; experiment wp084
Source text: as §1, §2

[22] = experiment wp016, direction of change down
[23] = experiment wp146, direction of change down

COc1cc(N2CCN(CCOCCOCCNC(=O)CNc3cccc4c3C(=O)N(C3CCC(=O)NC3=O)C4=O)CC2)ccc1Nc1ncc(Cl)c(Nc2ccccc2S(=O)(=O)C(C)C)n1 (centres unmarked) [TL13.12]
logFC AURKA (O14965) ([1]; experiment wp011): −0.5988
logFC of FER (P16591-1) ([2]; Experiment wp011): −0.8459
logFC of FER ([2]; experiment wp011): −0.8459
logFC PTK2 ([3]; Accession Q05397, direction down): −1.365
logFC PTK2 ([3]; PTK2 Q05397): −1.365

Nc1ncc(-c2ccc(S(=O)(=O)N(CCCNC(=O)CCOCCOCCOCCOCCOCCNc3cccc4c3C(=O)N(C3CCC(=O)NC3=O)C4=O)C3CC3)cc2)cc1-c1ccc2c(c1)CCNC2=O (centres unmarked) [WH.10414.099]
logFC STK35 ([4]; Accession Q8TDR2, direction down): −0.8902
logFC STK35 ([4]; STK35 (Q8TDR2)): −0.8902
logFC CSNK1D ([5]; Accession P48730-2, direction down): −0.6187
logFC CSNK1D ([5]; CSNK1D P48730-2): −0.6187

CC(C)S(=O)(=O)c1ccccc1Nc1nc(Nc2ccc(N3CCN(CCOCCOCCOCCNC(=O)CNc4cccc5c4C(=O)N(C4CCC(=O)NC4=O)C5=O)CC3)cc2)ncc1Cl (centres unmarked) [SK.3.87]
logFC AURKA (O14965) ([1]; experiment wp016): −1.381
logFC of FER (P16591-1) ([2]; Experiment wp016): −1.97
logFC of FER ([2]; experiment wp016): −1.97
logFC CDK2 (P24941-1) ([6]; experiment wp016): −0.3797
logFC CDK2 (P24941-1) [6, 22]: −0.3797
logFC WEE1 (P30291-1) ([7]; experiment wp016): −0.9273
logFC [8]: −0.5325
logFC CDK7 ([8]; experiment wp016): −0.5325
logFC of BLK ([9]; BLK P51451, experiment wp016): −0.9329
logFC of BLK (P51451) ([9]; Experiment wp016, down): −0.9329
logFC LIMK2 ([10]; LIMK2 (P53671), down): −0.378
logFC of LIMK2 ([10]; LIMK2 P53671): −0.378
logFC of CDK5 ([11]; Accession Q00535, experiment wp016): −0.5732
logFC CDK5 (Q00535) [11, 22]: −0.5732
logFC of CDK17 ([12]; experiment wp016): −0.6139
logFC CDK17 (Q00537) ([12]; experiment wp016): −0.6139
logFC ITK (Q08881) [13]: −1.868
logFC ITK (Q08881) ([13]; direction of change down): −1.868
logFC ([14]; PTK2B (Q14289-1) protein abundance, degrader vs DMSO, down): −3.217
logFC PTK2B ([14]; PTK2B, accession Q14289-1, experiment wp016, direction of change down): −3.217
logFC AAK1 ([15]; AAK1 (Q2M218-1), down): −0.7307
logFC AAK1 ([15]; AAK1, accession Q2M218-1, direction of change down): −0.7307
logFC CDK12 ([16]; Accession Q9NYV4-1, experiment wp016): −0.5073
logFC CDK12 ([16]; CDK12 (Q9NYV4-1), experiment wp016): −0.5073
logFC [5]: −0.4714
logFC LCK ([5]; LCK, accession P06239-3, experiment wp016, direction of change down): −0.3484
logFC CDK9 (P50750-2) ([5]; experiment wp016): −0.4714
logFC LCK (P06239-3) [5, 22]: −0.3484

NC(=O)c1c(F)cccc1Nc1nc(NC2CCN(S(=O)(=O)CCNC(=O)CCCCCCCCOc3cccc4c3C(=O)N(C3CCC(=O)NC3=O)C4=O)CC2)ncc1Br (centres unmarked) [TMX.01.160]
logFC AURKA (O14965) ([1]; experiment wp146): −2.621
logFC [17]: −1.423
logFC CDK1 [17]: −1.423
logFC CDK2 (P24941-1) ([6]; experiment wp146): −1.971
logFC CDK2 (P24941-1) [6, 23]: −1.971
logFC [18]: −3.32
logFC MAPK9 [18]: −3.32
logFC [8]: −0.601
logFC CDK7 ([8]; experiment wp146): −0.601
logFC CDK5 (Q00535) ([11]; experiment wp146): −2.901
logFC CDK5 (Q00535) [11, 23]: −2.901
logFC of CDK17 ([12]; experiment wp146): −1.627
logFC CDK17 (Q00537) ([12]; experiment wp146): −1.627
logFC CDK12 ([16]; Accession Q9NYV4-1, experiment wp146): −0.5118
logFC CDK12 ([16]; CDK12 (Q9NYV4-1), experiment wp146): −0.5118
logFC [5]: −1.181
logFC MAPK8 (P45983-4) ([5]; Experiment wp146, direction down): −2.112
logFC MAPK8 ([5]; MAPK8 P45983-4, experiment wp146): −2.112
logFC RPS6KA1 ([5]; RPS6KA1 (Q15418-2), experiment wp146): −0.4317
logFC CDK9 (P50750-2) ([5]; experiment wp146): −1.181
logFC CDK16 (Q00536-2) ([5]; experiment wp146): −1.11
logFC RPS6KA1 (Q15418-2) ([5]; experiment wp146): −0.4317

CC(=O)c1c(C)c2cnc(Nc3ccc(N4CCN(CCCCNC(=O)COc5cccc6c5C(=O)N(C5CCC(=O)NC5=O)C6=O)CC4)cn3)nc2n(C2CCCC2)c1=O (centres unmarked) [BSJ.03.204]
logFC CDK4 (P11802) ([19]; experiment wp084): −2.162
logFC CDK4 (P11802) ([19]; experiment wp137): −2.118
logFC of WEE1 ([7]; experiment wp084): −0.5774
logFC of WEE1 ([7]; experiment wp137): −0.6759
logFC WEE1 (P30291-1) ([7]; experiment wp084): −0.5774
logFC WEE1 (P30291-1) ([7]; experiment wp137): −0.6759
logFC CDK6 ([20]; experiment wp084): −3.574
logFC CDK6 ([20]; experiment wp137): −2.866
logFC of CDK6 (Q00534) ([20]; Experiment wp084): −3.574
logFC of CDK6 (Q00534) ([20]; Experiment wp137): −2.866
logFC [21]: −0.3767
logFC PDK1 [21]: −0.3767
